# Reference: ChEMBL document CHEMBL1697681, “Predicting phospholipidosis using machine learning” (Mol Pharm, 2010)
# System: Phospholipidosis
# Test: Literature-mined public compounds from Lowe et al phospholipidosis modelling dataset
row,SMILES,Phospholipidosis
1,CN1C(=O)CN=C(c2ccccc2)c2cc(Cl)ccc21 [DIAZEPAM],Negative
2,NC[C@@H]1CC[C@@H](N)[C@@H](O[C@H]2[C@H](O)[C@@H](O[C@H]3O[C@H](CO)[C@@H](O)[C@H](N)[C@H]3O)[C@H](N)C[C@@H]2N)O1 [DIBEKACIN],Positive
3,O=C(O)Cc1ccccc1Nc1c(Cl)cccc1Cl [DICLOFENAC],Negative
4,O=C(O)c1cc(-c2ccc(F)cc2F)ccc1O [DIFLUNISAL],Negative
5,CC(C)N(CCC(CCN1CCCCC1)(C(N)=O)c1ccccc1Cl)C(C)C (stereo not given) [DISOBUTAMIDE],Positive
6,COc1cc2c(cc1OC)C(=O)C(CC1CCN(Cc3ccccc3)CC1)C2 (stereo not given) [DONEPEZIL],Negative
7,CCN1CC(CCN2CCOCC2)C(c2ccccc2)(c2ccccc2)C1=O (stereo not given) [DOXAPRAM],Negative
8,COc1cccc2c1C(=O)c1c(O)c3c(c(O)c1C2=O)C[C@@](O)(C(=O)CO)C[C@@H]3O[C@H]1C[C@H](N)[C@H](O)[C@H](C)O1 [DOXORUBICIN],Negative
9,C[C@H]1c2cccc(O)c2C(=O)C2=C(O)[C@]3(O)C(=O)C(C(N)=O)=C(O)[C@@H](N(C)C)[C@@H]3[C@@H](O)[C@@H]21.O [DOXYCYCLINE],Negative
10,CC[C@H]1CN2CCc3cc(OC)c(OC)cc3[C@@H]2C[C@@H]1C[C@H]1NCCc2cc(OC)c(OC)cc21 [EMETINE],Positive
11,CC[C@H]1OC(=O)[C@H](C)[C@@H](O[C@H]2C[C@@](C)(OC)[C@@H](O)[C@H](C)O2)[C@H](C)[C@@H](O[C@@H]2O[C@H](C)C[C@H](N(C)C)[C@H]2O)[C@](C)(O)C[C@@H](C)C(=O)[C@H](C)[C@@H](O)[C@]1(C)O [ERYTHROMYCIN],Positive
12,C#C[C@]1(O)CC[C@H]2[C@@H]3CCc4cc(O)ccc4[C@H]3CC[C@@]21C [ETHINYL ESTRADIOL],Negative
13,CCSCC[C@H](N)C(=O)O [ETHIONINE],Negative
14,CCOC(=O)C1N=C(c2ccccc2F)c2cc(Cl)ccc2NC1=O (stereo not given) [ETHYL LOFLAZEPATE],Positive
15,COc1cc([C@@H]2c3cc4c(cc3[C@@H](O[C@@H]3O[C@@H]5CO[C@@H](C)O[C@H]5[C@H](O)[C@H]3O)[C@H]3COC(=O)[C@H]23)OCO4)cc(OC)c1O [ETOPOSIDE],Negative
16,NC(N)=Nc1nc(CSCCC(N)=NS(N)(=O)=O)cs1 [FAMOTIDINE],Negative
17,NC(=O)OCC(COC(N)=O)c1ccccc1 [FELBAMATE],Negative
18,CCNC(C)Cc1cccc(C(F)(F)F)c1 (stereo not given) [FENFLURAMINE],Positive
19,CC(C)OC(=O)C(C)(C)Oc1ccc(C(=O)c2ccc(Cl)cc2)cc1 [FENOFIBRATE],Negative
20,O=C(NCC1CCCCN1)c1cc(OCC(F)(F)F)ccc1OCC(F)(F)F (stereo not given) [FLECAINIDE],Negative
21,CNCCC(Oc1ccc(C(F)(F)F)cc1)c1ccccc1 (stereo not given) [FLUOXETINE],Positive
22,CC(C)C(=O)Nc1ccc([N+](=O)[O-])c(C(F)(F)F)c1 [FLUTAMIDE],Negative
23,COCCCC/C(=N\OCCN)c1ccc(C(F)(F)F)cc1 [FLUVOXAMINE],Positive
24,NS(=O)(=O)c1cc(C(=O)O)c(NCc2ccco2)cc1Cl [FUROSEMIDE],Negative
25,Cc1ccc(C)c(OCCCC(C)(C)C(=O)O)c1 [GEMFIBROZIL],Negative
26,CN[C@@H]1[C@@H](O)[C@@H](O[C@@H]2[C@@H](O)[C@H](O[C@H]3O[C@H]([C@@H](C)NC)CC[C@H]3N)[C@@H](N)C[C@H]2N)OC[C@]1(C)O [GENTAMICIN C1],Positive
27,CN[C@@H]1[C@@H](O)[C@@H](O[C@@H]2[C@@H](O)[C@H](O[C@H]3O[C@H](C(C)N)CC[C@H]3N)[C@@H](N)C[C@H]2N)OC[C@]1(C)O (stereo not given in full) [GENTAMICIN C2],Positive

row,SMILES,Phospholipidosis
1,N[C@H]1C(O)O[C@H](CO)[C@@H](O)[C@@H]1O (stereo not given in full) [GLUCOSAMINE],Negative
2,O=C(CCCN1CCC(O)(c2ccc(Cl)cc2)CC1)c1ccc(F)cc1 [HALOPERIDOL],Positive
3,CN1CCCN(C(c2ccccc2)c2ccc(Cl)cc2)CC1 (stereo not given) [HOMOCHLORCYCLIZINE],Positive
4,NN [HYDRAZINE],Negative
5,NC(=O)NO [HYDROXYUREA],Negative
6,OCCOCCN1CCN(C(c2ccccc2)c2ccc(Cl)cc2)CC1 (stereo not given) [HYDROXYZINE],Positive
7,CN(C)CCCN1c2ccccc2CCc2ccccc21 [IMIPRAMINE],Positive
8,O=C(NC1CCN(CCc2c[nH]c3ccccc23)CC1)c1ccccc1 [INDORAMIN],Positive
9,CC(=O)N1CCN(c2ccc(OCC3COC(Cn4ccnc4)(c4ccc(Cl)cc4Cl)O3)cc2)CC1 (stereo not given) [KETOCONAZOLE],Positive
10,CC(CCc1ccccc1)NCC(O)c1ccc(O)c(C(N)=O)c1 (stereo not given) [LABETALOL],Positive
11,C[C@H]1COc2c(N3CCN(C)CC3)c(F)cc3c(=O)c(C(=O)O)cn1c23.C[C@H]1COc2c(N3CCN(C)CC3)c(F)cc3c(=O)c(C(=O)O)cn1c23.O [LEVOFLOXACIN],Negative
12,CCN(CC)CC(=O)Nc1c(C)cccc1C [LIDOCAINE],Positive
13,CCOC(=O)N1CCC(=C2c3ccc(Cl)cc3CCc3cccnc32)CC1 [LORATADINE],Positive
14,CCN(CC)C(=O)[C@@H]1C=C2c3cccc4[nH]cc(c34)C[C@H]2N(C)C1 [LYSERGIDE],Positive
15,CNCCCC12CCC(c3ccccc31)c1ccccc12 [MAPROTILINE],Positive
16,Cc1cccc(CN2CCN(C(c3ccccc3)c3ccc(Cl)cc3)CC2)c1 (stereo not given) [MECLIZINE],Positive
17,CC12CC3CC(C)(C1)CC(N)(C3)C2 [MEMANTINE],Positive
18,CC1=CC(=O)c2ccccc2C1=O [MENADIONE],Negative
19,CN1CCCCC1CCN1c2ccccc2Sc2ccc([S+](C)[O-])cc21 (stereo not given) [MESORIDAZINE],Positive
20,CN(C)C(=N)N=C(N)N [METFORMIN],Negative
21,CCC(=O)C(CC(C)N(C)C)(c1ccccc1)c1ccccc1 (stereo not given) [METHADONE],Negative
22,CN(Cc1cnc2nc(N)nc(N)c2n1)c1ccc(C(=O)N[C@@H](CCC(=O)O)C(=O)O)cc1 [METHOTREXATE],Negative
23,C[C@](N)(Cc1ccc(O)c(O)c1)C(=O)O [METHYLDOPA],Negative
24,CN1CCN2c3ccccc3Cc3ccccc3C2C1 (stereo not given) [MIANSERIN],Positive
25,CCN[C@@H]1C[C@H](N)[C@@H](O[C@H]2OC(CN)=CC[C@H]2N)[C@H](O)[C@H]1O[C@H]1OC[C@](C)(O)[C@H](NC)[C@H]1O [NETILMICIN],Positive
26,Clc1ccc(C(c2ccccc2)N2CCNCC2)cc1 (stereo not given) [NORCHLORCYCLIZINE],Positive
27,CNCCC=C1c2ccccc2CCc2ccccc21 [NORTRIPTYLINE],Positive

row,SMILES,Phospholipidosis
1,CN(C)CCON=C1c2ccccc2CCc2ccccc21 [NOXIPTILINE],Positive
2,CC1COc2c(N3CCN(C)CC3)c(F)cc3c(=O)c(C(=O)O)cn1c23 (stereo not given) [OFLOXACIN],Negative
3,NCCc1cc(O)c(O)cc1O [OXIDOPAMINE],Positive
4,C1CCC(C(CC2CCCCN2)C2CCCCC2)CC1 (stereo not given) [PERHEXILINE],Positive
5,CCOc1ccc(NC(C)=O)cc1 [PHENACETIN],Positive
6,CCC1(c2ccccc2)C(=O)NC(=O)NC1=O [PHENOBARBITAL],Negative
7,CC(C)(N)Cc1ccccc1 [PHENTERMINE],Positive
8,CNC(=O)Oc1ccc2c(c1)[C@]1(C)CCN(C)[C@@H]1N2C [PHYSOSTIGMINE],Negative
9,Cc1cccc(Nc2cc(Cl)nc(SCC(=O)O)n2)c1C [PIRINIXIC ACID],Negative
10,CN1C(C(=O)Nc2ccccn2)=C(O)c2ccccc2S1(=O)=O [PIROXICAM],Negative
11,CC(Cc1ccccc1)NCCC(c1ccccc1)c1ccccc1 (stereo not given) [PRENYLAMINE],Positive
12,CCN(CC)CCNC(=O)c1ccc(N)cc1 [PROCAINAMIDE],Negative
13,CCN(CC)CCOC(=O)c1ccc(N)cc1 [PROCAINE],Negative
14,CN(C)CCCN1c2ccccc2Sc2ccccc21 [PROMAZINE],Positive
15,CC(CN1c2ccccc2Sc2ccccc21)N(C)C (stereo not given) [PROMETHAZINE],Positive
16,CC(C)NCC(O)COc1cccc2ccccc12 (stereo not given) [PROPRANOLOL],Positive
17,CCN(CC)CCCC(C)Nc1c2ccc(Cl)cc2nc2ccc(OC)cc12 (stereo not given) [QUINACRINE],Positive
18,C=C[C@H]1C[N@@]2CC[C@H]1C[C@@H]2[C@@H](O)c1ccnc2ccc(OC)cc12 [QUINIDINE],Positive
19,CO[C@H]1/C=C/O[C@@]2(C)Oc3c(C)c(O)c4c(O)c(c(/C=N/N5CCN(C)CC5)c(O)c4c3C2=O)NC(=O)/C(C)=C\C=C\[C@H](C)[C@H](O)[C@@H](C)[C@@H](O)[C@@H](C)[C@H](OC(C)=O)[C@@H]1C [RIFAMPIN],Negative
20,CN(C)[C@@H]1C(O)=C(C(=O)NCN2CCCC2)C(=O)[C@@]2(O)C(O)=C3C(=O)c4c(O)cccc4[C@@](C)(O)[C@H]3C[C@@H]12 [ROLITETRACYCLINE],Negative
21,CN[C@H]1CC[C@@H](c2ccc(Cl)c(Cl)c2)c2ccccc21 [SERTRALINE],Positive
22,CC(C)NCC(O)c1ccc(NS(C)(=O)=O)cc1 (stereo not given) [SOTALOL],Negative
23,CN[C@@H]1[C@H](O)[C@H](NC)[C@H]2O[C@@]3(O)C(=O)C[C@@H](C)O[C@H]3O[C@@H]2[C@H]1O [SPECTINOMYCIN],Positive
24,Cc1cn([C@H]2C=C[C@@H](CO)O2)c(=O)[nH]c1=O [STAVUDINE],Negative
25,N=C(N)c1ccc(/C=C/c2ccc(C(=N)N)cc2)cc1 [STILBAMIDINE],Positive
26,Cc1cc(NS(=O)(=O)c2ccc(N)cc2)no1 [SULFAMETHOXAZOLE],Negative
